In US20110263642A1, “METHODS FOR TREATMENT OF MULTIPLE SCLEROSIS” (FibroGen, Inc., priority 2008, published 2011):
Read-outs that look alike come from different tables or passages of the source.

Legend:
[1] = system: EAE animal model of multiple sclerosis; assay: EAE induced by MBP injection in Lewis rats, prophylactic versus treatment dosing (second series); assay type: in vivo
Method: In another series of experiments, the effectiveness of compounds and methods of the present invention on treating established multiple sclerosis in an EAE model was examined as follows. EAE was induced in female Lewis rats (200-220 g) as described above. Compound of the invention (30 mg/kg) or vehicle control was administered p.o. daily from day 3 to day 21 following MBP injection (prophylactic group) or from the day first symptoms appeared to day 21 (treatment group). Dexamethasone (1 mg/kg) was administered subcutaneously at 1 mg/kg from day 8 to day 12 following MBP injection.
Neurological scoring was performed daily from day 7 to day 21 following […]. Grading of disease severity (i.e., disease score) was based on the following observations performed by two different observers: 0=no abnormality; 1=distal weakness of the tail; 2=complete weakness of the tail; 3=mild weakness in one or two hindlimbs; 4=moderate paraparesia of one or two hindlimbs; 5=total paraplegia. Analysis of variance (ANOVA) was performed on data from the measured (clinical score) or the calculated (severity score) parameters. Fisher's Protected Least Significant Difference was used for pairwise comparisons. p value≦0.05 were considered significant.
Cumulative EAE disease score, used as a measure of overall disease severity, was determined by adding all disease/neurological scores for each animal over the time course of the experiment.

[2] = system: EAE animal model of chronic progressive multiple sclerosis; assay: Chronic progressive EAE induced by MOG35-55 and pertussis toxin in mice, neurological scoring to day 35; assay type: in vivo, C57BL/6 mice; conditions: for treated animals in which development of EAE disease was prevented / No. of Animals Showing No Disease Activity: through day 35
Text: A chronic progressive model of EAE is an accepted animal model of human chronic progressive multiple sclerosis (MS). In this model, induction of chronic progressive EAE occurs following injections of myelin oligodendrocyte glycoprotein (MOG). Approximately 8 to 14 days after injection of MOG, animals develop chronic progressive paralysis similar to that observed in humans with chronic progressive MS.
Female C57BL/6 mice (8-10 weeks old) were used in this study (Taconic Farm, CA). Compounds of the present invention were formulated in 0.5% carboxymethyl cellulose (CMC) with 0.1% Polysorbate 80 to achieve a final concentration of either 1.2 mg/ml or 4.0 mg/ml. FTY-720 was also formulated in 0.5% carboxymethyl cellulose (CMC) with 0.1% Polysorbate 80 to achieve a final concentration of 2.0 mg/ml.
Induction of chronic progressive EAE by injection with myelin oligodendrocyte glycoprotein (MOG) was performed as follows. Mice were injected subcutaneously with 200 μg of myelin oligodendrocyte glycoprotein (MOG35-55) peptide emulsion in both sides of their pectoral regions (50 μl each side). At 8 hours and 48 hr after immunization with MOG, animals were injected intraperitoneally with 400 ng of pertussis toxin (PT) in 100 μl of saline. Control mice received both injections with an equivalent volume of saline without MOG or PT.
[…] FTY-720 (10 mg/kg) was used in this study as a positive control and was administered daily from day 0 to day 35.
Neurological scoring was performed daily from day 7 to day 35 following MOG injection. Grading of disease severity (i.e., disease score) was based on the following observations performed by two different observers: 0=no abnormality; 1=distal weakness of the tail (limp tail); 2=limp tail and weakness of hind legs (mild paraparesis); 3=limp tail and complete paralysis of hind legs or paralysis in one of one front leg and one hind leg (moderate paraparesis); 4=limp tail, complete hind leg and partial front leg paralysis (moderate quadraparesis); 5=complete hind and front leg paralysis (moribund). Analysis of variance (ANOVA) was performed on data from the measured (neurological score) parameters. p value≦0.05 were considered significant.

[3] = system: Oligodendrocytes (MO3.13 cells); assay: Ceramide-induced cell death of oligodendrocytes, Calcein AM viability; assay type: cell-based; conditions: for viability at 20 µM: ceramide 2.25 μM, compound 20 μM, non-ceramide control = 100
Text: (See e.g., Craighead et al. (2000) Neurosci Lett. 278:125-8; Jana et al. (2007) J Neuroimmune Pharmacol. 2:184-93; Jana et al. (2009) J Neurol Sci. 278:5-15; Singh et al. (1998) J Biol. Chem. 273:20354-62.) In this model, addition of ceramide to cultured oligodendrocytes results in oxidative stress-induced cell death (i.e. apoptosis). The effect of compounds and methods of the present invention on the ability to improve oligodendrocyte viability following ceramide challenge was examined as follows. Oligodendrocytes (MO3.13 cells; Cedarlane Laboratories, Burlington, N.C.) were plated in 96-well culture dishes at a density of 4000 cells per well and cultured at 37° C., 10% CO2 in DMEM containing L-glutamine, sodium pyruvate, and 25 mM glucose (Mediatech Inc., Manassas, Va.) and supplemented with 10% FBS (Invitrogen Corporation, Carlsbad, Calif.). The next day, the plating media was removed and replaced with DMEM containing L-glutamine (Invitrogen Corporation, Carlsbad, Calif.) and supplemented with 5.5 mM glucose. Cells were then treated with vehicle (0.015% DMSO) or ceramide (Sigma-Aldrich, St. Louis, Mo.) plus vehicle (0.05% DMSO) or a compound of the invention (20 μM).
For cells treated longer than 3 days, half the media was removed after the third day of treatment and replaced with an equal volume of fresh treatment media containing vehicle (0.015% DMSO) or ceramide plus vehicle (0.05% DMSO) or a compound of the invention.
Cell viability was assessed 3, 4, and 5 days after treatment using the following protocol. Treatment media was removed from the cells and 100 ul of 1.67 uM Calcein AM reagent (Invitrogen Corporation, Carlsbad, Calif.) prepared in DMEM containing L-glutamine (Invitrogen Corporation, Carlsbad, Calif.) and supplemented with 5.5 mM glucose was added to each well. Cells were returned to 37° C. in a 10% CO2 incubator for approximately 30 minutes before assessing fluorescence (Ex 485 nm/Em 538 nm) using a microplate reader (Molecular Devices, Sunnyvale, Calif.). Images were taken of representative wells using a fluorescent microscope equipped with a camera (Nikon, Melville, N.Y.) and imaging software (Nikon, Melville, N.Y.).

**Q.** Which “cumulative disease score (AUC)” value ([1]; 30 mg/kg p.o., both prophylactic group and treatment group, FIGS. 4A and 4B) does the source give for `N#Cc1nc(C(=O)NCC(=O)O)c(O)c2c(Oc3ccccc3)cccc12` [Compound A, [(1-Cyano-4-hydroxy-5-phenoxy-isoquinoline-3-carbonyl)-amino]-acetic acid] here?
**A.** reduced

**Q.** And the “reduction in disease severity compared to vehicle-treated control EAE animals” value ([1]; prophylactic group: 30 mg/kg p.o. daily, day 3 to day 21)?
**A.** 31%

**Q.** And the “reduction in disease severity compared to vehicle-treated control EAE animals” value ([1]; treatment group: 30 mg/kg p.o. daily, first symptom to day 21, p<0.05)?
**A.** 19%

**Q.** What about the “treated animals in which development of EAE disease was prevented” value ([2]; 10 mg/kg as printed) of the same molecule?
**A.** 40%

**Q.** And the “disease severity compared to vehicle-treated control EAE animals” value ([2]; 10 mg/kg or 30 mg/kg as printed, p.o. three times a week, day 0-35, FIG. 5)?
**A.** reduction in disease severity at all timepoints

**Q.** What about the “treated animals in which development of EAE disease was prevented” value ([2]; 30 mg/kg as printed, p<0.05) of the same molecule?
**A.** 43%

**Q.** And the “No. of Animals Showing No Disease Activity” value ([2]; first EAE/Cmpd A row, dose not printed in Table 4 (Table 3: 6 mg/kg/d, 3 times a week))?
**A.** 6/15

**Q.** What about the “No. of Animals Showing No Disease Activity” value ([2]; second EAE/Cmpd A row, dose not printed in Table 4 (Table 3: 20 mg/kg/d, 3 times a week)) of the same molecule?
**A.** 6/14

**Q.** What about the viability at 20 µM ([3]; 72 h, read-out: % Viable at Day 3) of the same molecule?
**A.** 82%

**Q.** And the viability at 20 µM ([3]; 96 h, read-out: % Viable at Day 4)?
**A.** 46%

**Q.** What about the viability at 20 µM ([3]; 120 h, read-out: % Viable at Day 5) of the same molecule?
**A.** 33%

**Q.** And the “increase in viability compared to vehicle treated oligodendrocytes” value ([3]; ceramide-challenged, day 5)?
**A.** 3 fold
